# Measurements: patent publication US6242478A, “Five member ring sulfenate esters and thiosulfinate esters” (Wake Forest University, priority 1999, dated 2001)
# Where two headings read alike, the source gives them in different places.
# Key:
# [1] = test system: GST alpha mRNA in BNL.CL2 cells; experiment: GST alpha mRNA induction, Northern blot; type: cell-based, mouse; conditions: for GST α induction (mRNA): 80 μM, Northern blot
# Protocol: (§1) BNL.CL2 cells were treated with Oltipraz, compound 121 described above, and compound 123 described above. All compounds were applied to the cells at 100 micromolar concentration for 24 hours.
# (§2) Cells were exposed to compounds at a final concentration of 80 μM for 24 hours. RNA was isolated and analyzed by Northern blotting for the expression of the indicated genes. Control cells were incubated with vehicle alone (0.4% DMSO).
# (§3) Northern blot: Treatment of BNL.CL2 cells with 100 μM Oltipraz, ALH-556, and ALH-562, ALH-561, ED 13.4, ED 14.6, DCF 070, ALH-490
# (§4) BNL.CL2 cells (normal mouse embryonic liver cell line) were plated at ~3×10^5 cells/ml, grown for 16-24 hours, and treated with 0 μM and 100 μM Oltipraz, ALH-556 (121), and ALH-562 (123) for 24 hours. All three compounds were dissolved in DMSO and the final DMSO concentration present in all treatment conditions was 0.2%. BNL.CL2 cells were harvested by trypsinization and total RNA was isolated using the Trizol reagent (Gibco BRL) according to the manufacturer's procedures. 15 μg of RNA were run on a 1.1% agarose/6.6% formaldehyde gel and transferred overnight onto nitrocellulose membranes by capillary transfer using 20×SSC as transfer buffer. Subsequent to RNA transfer, the nitrocellulose membrane was baked at 80° C. for 2 hours. RNA was analyzed using a radiolabeled mouse ferritin H and human GST-α c-DNA. A human β-actin probe was used as an internal standard. The c-DNA probes were labeled with [α^32 P]dCTP by a random prime labeling. Hybridization of the c-DNA probes to the nitrocellulose membrane was performed at 68° C. for 60 minutes using the Quick-Hyb solution (Stratagene). Membranes were subjected to phosphoimager analysis after hybridization.
# [2] = test system: DT-diaphorase (NQO1) mRNA; experiment: NQO1 mRNA induction, Northern blot; type: cell-based, mouse; conditions: 80 μM, 24 hours
# Protocol: as §1, §2, §3, §4
# Ferritin H mRNA = Ferritin H mRNA induction, Northern blot; type: cell-based, mouse; conditions: 80 μM, 24 hours
# Protocol: as §1, §2, §3, §4
# HIV-1RF [3] = experiment: XTT cytoprotection assay, anti-HIV-1 activity (EC50) in CEM-SS cells; type: cell-based
# From the text: (§5) Both the XTT and monocyte/macrophage assays were used because infection of monocyte/macrophage cultures is thought to resemble infection of the nonproliferating pool of cells in vivo, while the parameters for the CEM-SS cells (XTT assay) are thought to reflect more closely the parameters for highly proliferating cells such as bone marrow and intestinal cells. The CEM-SS cell (XTT) assay is a more sensitive indicator of toxicity and all compounds disclosed herein have been screened in this assay.
# Based on these preliminary screens, it is contemplated that an aromatic or large substituent at R1 (compare entries 1 & 4, 9 & 10) and a small substituent at R2 (compare entries 1, 2, & 3; 7, 8, & 9) may be best for anti-HIV-1 activity. Sulfur heterocycles containing more than 6 atoms don't appear to be active (entries 13 & 14). […] As observed for 8 previously (Rice et al., 1997), anti-HIV-1 activity and toxicity of 53a went down when treated with 2 equivalents of GSH (entry 6).
# CEM-SS cells [4] = experiment: XTT assay, toxicity (IC50) in CEM-SS cells; type: cell-based; conditions: for IC50: Homo sapiens, CEM-SS, Table 3, read-out: XTT Anti-HIV-1 Assay IC50
# From the text: as §5
# NCp7 [5] = molecular target: T1, NCp7 (Human immunodeficiency virus type 1 group M subtype B, UniProt P12493); experiment: NCp7 Trp37 fluorescence decrease assay; type: biochemical, HIV-1; conditions: for NCp7 Trp37 Assay, % Decrease RFU/30 min, without GSH: 50 μM
# T1 construct: HIV-1 nucleocapsid protein (NCp7)
# NCp7 protein = conditions: in words; cited from earlier work
# HIV-1RF [6] = conditions: cited from earlier work
# CEM-SS cells [7] = conditions: toxicity, CEM-SS cells; read-out: XTT assay IC50; cited from earlier work
# HIV-1ADA = conditions: in words; fresh human monocyte/macrophage cultures; cited from earlier work
# NCp7 [8] = molecular target: T2, NCp7 (Human immunodeficiency virus type 1 group M subtype B, UniProt P04591); conditions: DFT calculation (Maynard et al., 1998); cited from earlier work
# T2 construct: HIV-1 nucleocapsid protein (NCp7)
# [9] = Human immunodeficiency virus 1, CEM-SS, Table 3, read-out: XTT Anti-HIV-1 Assay EC50
# [10] = Human immunodeficiency virus 1, CEM-SS, read-out: Maximum cytoprotection
smiles,measurement,setting,value
O=S1(=O)OCC=C1c1ccccc1 [ALH-490],GST α induction (mRNA),[1]; 24 hours,+
same,NQO1 induction (mRNA),[2],+
same,Ferritin H induction (mRNA),Ferritin H mRNA,+
COC(=O)C1=C(C)S(=O)OC1 (stereo not shown) [(10) 53g],Emax at 3.2 µM,"HIV-1RF [3]; Human immunodeficiency virus 1, CEM-SS, @ 3.2 μM, read-out: Maximum cytoprotection",32.6%
same,IC50,CEM-SS cells [4],5.3 µM
same,"NCp7 Trp37 Assay, % Decrease RFU/30 min, without GSH",NCp7 [5],0.2 % Decrease RFU/30 min
CC1=C(C2=CCCCC2)[S+]([O-])SC1 (stereo not shown) [ED 14.6],GST α induction (mRNA),[1]; 24 hours,+
same,NQO1 induction (mRNA),[2],+
same,Ferritin H induction (mRNA),Ferritin H mRNA,+
COC(=O)C1=C(c2ccccc2)[S+]([O-])SC1 (stereo not shown) [53a],anti-HIV-1 activity with GSH,"HIV-1RF [3]; 2 equivalents of GSH, in words",went down
same,EC50,"HIV-1RF [3]; Human immunodeficiency virus 1, CEM-SS, + GSH, 2 equivalents, read-out: XTT Anti-HIV-1 Assay EC50 with GSH",17.3 µM
same,EC50,HIV-1RF [3]; [9],6 µM
same,"EC50 relative to the best dithiane (8, NSC 624151)",HIV-1RF [3]; in words,below that of the best dithiane
same,cytoprotection / anti-HIV-1 activity,HIV-1RF [3]; in words,possess anti-HIV-1 activity
same,toxicity with GSH,"CEM-SS cells [4]; 2 equivalents of GSH, in words",went down
same,IC50,CEM-SS cells [4],18 µM
same,"NCp7 Trp37 Assay, % Decrease RFU/30 min, with GSH",NCp7 [5]; 50 μM with GSH,16.7 % Decrease RFU/30 min
same,"NCp7 Trp37 Assay, % Decrease RFU/30 min, without GSH",NCp7 [5],13.5 % Decrease RFU/30 min
same,zinc ejecting ability with GSH,"NCp7 [5]; GSH, in words",little effected by GSH
"NC(=O)c1cccc(N=O)c1 [NOBA, 3-nitrosobenzamide]",ejection of zinc from NCp7,NCp7 protein,reacted with the zinc fingers of NCp7 causing zinc ejection
CC(C)(C)c1cc(O)ccc1O [t-BHQ],GST α induction (mRNA),[1]; 24 hours,+
same,NQO1 induction (mRNA),[2],+
same,Ferritin H induction (mRNA),Ferritin H mRNA,+
CCOC(=O)C1=C(c2ccccc2)[S+]([O-])SC1 (stereo not shown) [53b],Emax at 10 µM,HIV-1RF [3]; [10],31.6%
same,IC50,CEM-SS cells [4],45.7 µM
same,"NCp7 Trp37 Assay, % Decrease RFU/30 min, without GSH",NCp7 [5],6.5 % Decrease RFU/30 min
"COc1ccc(C2=C(C)COS2=O)cc1 (stereo not shown) [compound 121, 4-Methyl-5-(4-methoxy)phenyl-1,2-oxathiol-4-en-1-yl Oxide]",activation at 100 µM,"[1]; Mus musculus, BNL CL.2, BNL.CL2 cells, 100 micromolar, 24 hours, read-out: increase in GST alpha mRNA levels",300%
same,"inducing activity (GST, NQO1 and Ferritin H)",[1]; in words,high levels of inducing activity
CC(C)OC(=O)C1=C(c2ccccc2)[S+]([O-])SC1 (stereo not shown) [53c],Emax at 10 µM,HIV-1RF [3]; [10],43.3%
same,IC50,CEM-SS cells [4],15.2 µM
same,"NCp7 Trp37 Assay, % Decrease RFU/30 min, without GSH",NCp7 [5],17.1 % Decrease RFU/30 min
CCOC(=O)C1=C(c2ccccc2)S(=O)OC1 (stereo not shown) [(8) 53g],Emax at 100 µM,"HIV-1RF [3]; Human immunodeficiency virus 1, CEM-SS, @ 100 μM, read-out: Maximum cytoprotection",12%
same,IC50,CEM-SS cells [4],213 µM
same,"NCp7 Trp37 Assay, % Decrease RFU/30 min, without GSH",NCp7 [5],26 % Decrease RFU/30 min
COC(=O)C1=C(C)[S+]([O-])SC1 (stereo not shown) [53d],Emax at 10 µM,HIV-1RF [3]; [10],41.4%
same,IC50,CEM-SS cells [4],16.9 µM
same,"NCp7 Trp37 Assay, % Decrease RFU/30 min, without GSH",NCp7 [5],14.3 % Decrease RFU/30 min
COC(=O)C1=C(c2ccccc2)[S+]([O-])SC1 (stereo not shown) [DCF 070],GST α induction (mRNA),[1]; 24 hours,+
same,NQO1 induction (mRNA),[2],+
same,Ferritin H induction (mRNA),Ferritin H mRNA,+
COC(=O)C1=C(C2=CCCCC2)[S+]([O-])SC1 (stereo not shown) [ED 13.4],GST α induction (mRNA),[1]; 24 hours,+
same,NQO1 induction (mRNA),[2],+
same,Ferritin H induction (mRNA),Ferritin H mRNA,+
O=S1(=O)CC(CO)(CO)CS1 [compound 6],EC50,"HIV-1RF [6]; CEM-SS cells, HIV-1RF, read-out: XTT assay EC50",34 µM
same,activity against HIV-1 in XTT-based cytoprotection assay,HIV-1RF [6]; in words,active
same,IC50,CEM-SS cells [7],200 µM
same,activity against replication of monocytotropic HIV-1ADA,HIV-1ADA,active
same,ejection of zinc from NCp7,NCp7 protein,promoted ejection of zinc
"NS(=O)(=O)c1ccc(NC(=O)c2ccccc2SSc2ccccc2C(=O)Nc2ccc(S(N)(=O)=O)cc2)cc1 [3, R'=C(O)NH-phenyl-SO2 NH2]",ratio of electronegativity to hardness (.chi.^2 /.eta.),NCp7 [8],0.2935
"CC(=O)NS(=O)(=O)c1ccc(NC(=O)c2ccccc2SSc2ccccc2C(=O)Nc2ccc(S(=O)(=O)NC(C)=O)cc2)cc1 [3, R'=C(O)NH-phenyl-SO2 NHC(O)CH3]",ratio of electronegativity to hardness (.chi.^2 /.eta.),NCp7 [8],0.3098
CC1=C(c2ccccc2)S(=O)OC1 (stereo not shown) [53f],EC50,HIV-1RF [3]; [9],5.9 µM
same,"EC50 relative to the best dithiane (8, NSC 624151)",HIV-1RF [3]; in words,below that of the best dithiane
same,cytoprotection / anti-HIV-1 activity,HIV-1RF [3]; in words,possess anti-HIV-1 activity
same,IC50,CEM-SS cells [4],16.9 µM
same,"NCp7 Trp37 Assay, % Decrease RFU/30 min, without GSH",NCp7 [5],0 % Decrease RFU/30 min
CC1=C(C(=O)OC(C)C)CS[S+]1[O-] (stereo not shown) [53e],Emax at 10 µM,HIV-1RF [3]; [10],40%
same,IC50,CEM-SS cells [4],18.4 µM
same,"NCp7 Trp37 Assay, % Decrease RFU/30 min, without GSH",NCp7 [5],10.4 % Decrease RFU/30 min
COC(=O)C1=C(c2ccccc2)S(=O)OC1 (stereo not shown) [53h],Emax at 10 µM,HIV-1RF [3]; [10],29%
same,IC50,CEM-SS cells [4],22.5 µM
same,"NCp7 Trp37 Assay, % Decrease RFU/30 min, without GSH",NCp7 [5],0 % Decrease RFU/30 min
